The target in assay [1] is T1, STAT3 (Homo sapiens, UniProt P40763). The experiment in a line: Quantitation of STAT3 degradation in A549 cells by Western blot. In kind it is cell-based. Also on record: expressed in transfected cells; host or cells: A549. The protocol: Degradation of total cellular STAT3 protein in A549 was quantitatively measured using SDS-PAGE and Western blot analysis. A549 cells (5×10^5 cells/well, 2 mL) were seeded into 6-well plates and were incubated in the incubator under 5% CO2 overnight to reach ˜80% confluency. The next day, the culture medium was changed with 1 ml fresh media. Then, 1 mL of media containing 2× compound solution was added into the well to make the final concentration of 30 μM, 10 μM, 3 μM, 1 μM, 0.3 μM and 0 μM (DMSO). The media was thoroughly mixed and incubated for 24 hours at 37° C. under 5% CO2. Then, the culture media was removed from the assay plates and the cells were washed with ice-cold PBS twice. To prepare cell lysates, 200 ul pre-chilled RIPA lysis buffer (Boston BioProducts BP-115D) with protease/phosphatase inhibitor (Roche 05892791001/Roche 04906837001) was added directly into the well to lyse the cells for 20 minutes on ice. The cell lysates were then transferred to centrifuge tubes. Insoluble part of lysates was removed by centrifuging the lysates at 13000 rpm for 20 minutes. The supernatant was then collected and mixed with 5× loading buffer (Beyotime Bio P0015) to make the final samples for SDS-PAGE analysis. The samples were heated at 100° C. for 10 minutes and cool to room temperature before centrifuging at 13000 rpm for 20 minutes. To analyze the samples by SDS-PAGE, 10 ul samples were loaded onto SDS-PAGE gel (Novex, WG1403BOX) and the SDS-PAGE gel was run for 20 minutes at 80 V, then at 120 V for 1.5 hours. The SDS-PAGE gel was then transferred to nitrocellulose membrane using the wet-transfer method at 250 mA for 1.5 hours. The membrane was then blocked with LI-COR blocking buffer (LI-COR, 927-50000) for 1 hour and was probed with primary antibody (mouse anti-STAT3 (124H6) (CST #91395) 1:2000 or mouse anti-beta-Actin (8H10D10) (CST #3700) 1:10000) at 4° C. overnight. The membrane was then washed three times with TBST buffer and probed with secondary antibody (anti-mouse IgG (LI-COR, 926-68070), 1:5000) for 1 hour at room temperature. The membrane was then scanned on a LI-COR Odyssey instrument and was quantified using Image Studio Version 5.2. Concentration at 50% degradation (DC50) was calculated by fitting dose dependent degradation data using a sigmoidal equation using GraphPad Prism Version 8.0.

In assay [2] the target is T1, STAT3. The experiment in a line: STAT3 HiBiT degradation assay in transfected A549 cells. In kind it is cell-based. Details: expressed in transfected cells; host or cells: A549. The essentials: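 Degradation read as HiBiT-tagged STAT3 luminescence (Nano-Glo lytic reagent, 10 min, room temperature) following 24 h compound treatment of transfected A549 cells at 3-fold, 10 points. Percent remaining signal computed against controls and fitted with a four-parameter logistic; DC50 reported as letter bins (A <0.01 to D >1.0 µM).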

The mark [3] stands for this setting: A549, 24 h; read-out: STAT3 HiBiT A549 degradation 24 h: Average external-Abs DC50.
The mark [4] stands for this setting: read-out: STAT3 HiBiT A549 degradation 24 h: Average external-Abs DC50; A549, 24 h.

Each structure is given as a SMILES string.

T1 sequence (P40763 whole entry): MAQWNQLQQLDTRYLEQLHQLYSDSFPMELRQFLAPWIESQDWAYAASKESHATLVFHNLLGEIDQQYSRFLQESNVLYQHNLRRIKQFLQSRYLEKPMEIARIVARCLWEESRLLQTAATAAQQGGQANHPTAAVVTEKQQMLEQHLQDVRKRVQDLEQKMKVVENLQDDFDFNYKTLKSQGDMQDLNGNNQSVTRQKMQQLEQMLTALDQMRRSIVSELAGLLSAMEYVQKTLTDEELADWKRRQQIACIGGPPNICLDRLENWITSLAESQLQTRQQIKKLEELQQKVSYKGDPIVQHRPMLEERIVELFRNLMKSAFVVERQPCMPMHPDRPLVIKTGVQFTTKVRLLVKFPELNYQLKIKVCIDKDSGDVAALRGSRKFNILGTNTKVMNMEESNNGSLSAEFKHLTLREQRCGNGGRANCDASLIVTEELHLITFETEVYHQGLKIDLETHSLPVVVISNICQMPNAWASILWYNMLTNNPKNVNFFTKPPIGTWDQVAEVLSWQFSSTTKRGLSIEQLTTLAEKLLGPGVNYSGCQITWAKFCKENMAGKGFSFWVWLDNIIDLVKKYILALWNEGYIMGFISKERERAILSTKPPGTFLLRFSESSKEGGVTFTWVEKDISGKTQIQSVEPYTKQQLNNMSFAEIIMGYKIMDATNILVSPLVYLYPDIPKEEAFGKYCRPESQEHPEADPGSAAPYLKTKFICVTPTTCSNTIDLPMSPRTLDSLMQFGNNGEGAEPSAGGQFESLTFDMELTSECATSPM

In general, DC50 refers to the midpoint of the concentration-degradation curve. On to `C/C(=C\C(=O)N[C@H]1CCc2cccc3c2N(C1=O)[C@H](C(=O)N[C@@H](CCC(N)=O)[C@@H](C)OCc1ccc(CCCCCOCCCc2cccc4c2n(C)c(=O)n4C2CCC(=O)NC2=O)cc1)C3)c1ccc(C(F)(F)P(=O)(OCOC(=O)C(C)(C)C)OCOC(=O)C(C)(C)C)cc1` (stereo partly drawn) [Compound I-38, [([4-[(1E)-1-[[(2S,11S)-2-[[(3S,4R)-1-carbamoyl-4-[[4-(5-[3-[1-(2,6-dioxopiperidin-3-yl)-3-methyl-2-oxo-1,3-benzodiazol-4-yl]propoxy]pentyl)phenyl]methoxy]pentan-3-yl]carbamoyl]-12-oxo-1-azatricyclo[6.4.1.0^[4,13]]trideca-4(13),5,7-trien-11-yl]carbamoyl]prop-1-en-2-yl]phenyl]difluoromethyl([(2,2-dimethylpropanoyl)oxy]methoxy)phosphoryl)oxy]methyl 2,2-dimethylpropanoate], for which, in assay [1] (read-out: A549 DC50, 24 hours, tested up to 30 μM or 10 μM), the DC50 was over 10000 nM.

Regarding `C/C(=C\C(=O)N[C@H]1CCc2cccc3c2N(C1=O)[C@H](C(=O)N[C@@H](CCC(N)=O)[C@@H](C)OCc1ccc(CCCCC(=O)N[C@H](C(=O)N2C[C@H](O)C[C@H]2C(=O)NCc2ccc(-c4scnc4C)cc2)C(C)(C)C)cc1)C3)c1ccc(CP(=O)(O)O)cc1` [Compound I-80, diammonium [4-[(1E)-1-[[(2S,11S)-2-[[(3S,4R)-1-carbamoyl-4-[[4-(4-[[(2S)-1-[(2S,4R)-4-hydroxy-2-([[4-(4-methyl-1,3-thiazol-5-yl)phenyl]methyl]carbamoyl)pyrrolidin-1-yl]-3,3-dimethyl-1-oxobutan-2-yl]carbamoyl]butyl)phenyl]methoxy]pentan-3-yl]carbamoyl]-12-oxo-1-azatricyclo[6.4.1.0^[4,13]]trideca-4(13),5,7-trien-11-yl]carbamoyl]prop-1-en-2-yl]phenyl]methylphosphonate], the half-maximal degradation concentration (DC50) in assay [1] (24 hours, tested up to 30 μM or 10 μM, read-out: A549 DC50) is over 30000 nM.

For `Cn1c(=O)n(C2CCC(=O)NC2=O)c2ccc([C@H]3CC[C@@H](CCCC(=O)N4CC[C@H]5CC[C@@H](C(=O)N[C@@H](CCC(N)=O)C(=O)NC(c6ccccc6)c6ccccc6)N5C(=O)[C@@H](NC(=O)c5cc6cc(C(=O)P(=O)(O)O)ccc6[nH]5)C4)CC3)cc21` (stereo partly drawn) [Compound I-274, 2-[[(5S,8S,10aR)-8-[[(1S)-3-carbamoyl-1-(diphenylmethylcarbamoyl)propyl]carbamoyl]-6-oxo-3-[4-[(1s,4r)-4-[1-(2,6-dioxopiperidin-3-yl)-3-methyl-2-oxo-1,3-benzodiazol-5-yl]cyclohexyl]butanoyl]-octahydropyrrolo[1,2-a][1,5]diazocin-5-yl]carbamoyl]-1H-indole-5-carbonylphosphonic acid], the half-maximal degradation concentration (DC50) in assay [2] (setting [3]) is 100 to 1000 nM.

Consider `Cc1ncsc1-c1ccc(CNC(=O)[C@@H]2C[C@@H](O)CN2C(=O)[C@@H](NC(=O)CCCc2cccc3cc(CO[C@H](C)[C@H](CCC(N)=O)NC(=O)[C@@H]4Cc5cccc6c5N4C(=O)[C@@H](NC(=O)c4cc5cc(C(=O)P(=O)(O)O)ccc5[nH]4)CC6)ccc23)C(C)(C)C)cc1` [Compound I-133, diammonium 2-[[(2S,11S)-2-[[(3S,4R)-1-carbamoyl-4-[[5-(3-[[(2S)-1-[(2S,4R)-4-hydroxy-2-([[4-(4-methyl-1,3-thiazol-5-yl)phenyl]methyl]carbamoyl)pyrrolidin-1-yl]-3,3-dimethyl-1-oxobutan-2-yl]carbamoyl]propyl)naphthalen-2-yl]methoxy]pentan-3-yl]carbamoyl]-12-oxo-1-azatricyclo[6.4.1.0^[4,13]]trideca-4(13),5,7-trien-11-yl]carbamoyl]-1H-indole-5-carbonylphosphonate], for which the 50% degradation concentration (DC50) in assay [2] (setting [3]) lay in the range of 100 to 1000 nM.

Regarding `Cc1ncsc1-c1ccc([C@H](C)NC(=O)[C@@H]2C[C@@H](O)CN2C(=O)[C@@H](NC(=O)CCCc2cccc(NC(=O)[C@H](CCC(N)=O)NC(=O)[C@@H]3Cc4cccc5c4N3C(=O)[C@@H](NC(=O)c3cc4cc(C(=O)P(=O)(O)O)ccc4[nH]3)CC5)c2Cl)C(C)(C)C)cc1` [Compound I-247, diammonium 2-[[(2S,11S)-2-[[(1S)-3-carbamoyl-1-[[2-chloro-3-(3-[[(2S)-1-[(2S,4R)-4-hydroxy-2-[[(1S)-1-[4-(4-methyl-1,3-thiazol-5-yl)phenyl]ethyl]carbamoyl]pyrrolidin-1-yl]-3,3-dimethyl-1-oxobutan-2-yl]carbamoyl]propyl)phenyl]carbamoyl]propyl]carbamoyl]-12-oxo-1-azatricyclo[6.4.1.0^[4,13]]trideca-4(13),5,7-trien-11-yl]carbamoyl]-1H-indole-5-carbonylphosphonate], in assay [2] (setting [3]), the DC50 was 10 to 100 nM.

For the compound `Cn1c(=O)n(C2CCC(=O)NC2=O)c2ccc([C@H]3CC[C@H](CCCC(=O)N4CC[C@H]5CC[C@@H](C(=O)NC(CCC(N)=O)C(=O)NC(c6ccccc6)c6ccccc6)N5C[C@@H](NC(=O)c5cc6cc(C(=O)P(=O)(O)O)ccc6[nH]5)C4)CC3)cc21` (stereo partly shown) [Compound I-271], the DC50 in assay [2] (setting [3]) was in the range of 100 to 1000 nM.

With `Cn1c(=O)n(C2CCC(=O)NC2=O)c2ccc(CCCCCc3cc4c5c(c3)C[C@@H](C(=O)N[C@@H](CCC(N)=O)C(=O)NC(c3ccccc3)c3ccccc3)N5C(=O)[C@@H](NC(=O)c3cc5cc(C(=O)P(=O)(O)O)ccc5[nH]3)CC4)cc21` (stereo partly drawn) [Compound I-198, 2-[[(2S,11S)-2-[[(1S)-3-carbamoyl-1-(diphenylmethylcarbamoyl)propyl]carbamoyl]-6-[5-[1-(2,6-dioxopiperidin-3-yl)-3-methyl-2-oxo-1,3-benzodiazol-5-yl]pentyl]-12-oxo-1-azatricyclo[6.4.1.0^[4,13]]trideca-4(13),5,7-trien-11-yl]carbamoyl]-1H-indole-5-carbonylphosphonic acid], the DC50 in assay [2] (setting [3]) is 100 to 1000 nM.

In the case of `C[C@@H](OCc1ccc(Br)cc1)[C@H](CCC(N)=O)NC(=O)[C@@H]1CC[C@@H]2CCN(C(=O)CCCCCCc3ccc4c(c3)n(C)c(=O)n4C3CCC(=O)NC3=O)C[C@H](NC(=O)c3cc4cc(C(=O)P(=O)(O)O)ccc4[nH]3)C(=O)N21` (stereo partly drawn) [Compound I-183, 2-[[(5S,8S,10aR)-8-[[(3S,4R)-4-[(4-bromophenyl)methoxy]-1-carbamoylpentan-3-yl]carbamoyl]-3-[7-[1-(2,6-dioxopiperidin-3-yl)-3-methyl-2-oxo-1,3-benzodiazol-5-yl]heptanoyl]-6-oxo-octahydropyrrolo[1,2-a][1,5]diazocin-5-yl]carbamoyl]-1H-indole-5-carbonylphosphonic acid], the half-maximal degradation concentration (DC50) in assay [2] (setting [4]) lay within 100 to 1000 nM.

As to `Cc1ncsc1-c1ccc([C@H](C)NC(=O)[C@@H]2C[C@@H](O)CN2C(=O)[C@@H](NC(=O)CCCc2cccc(OC[C@H](CCC(N)=O)NC(=O)[C@@H]3Cc4cccc5c4N3C(=O)[C@@H](NC(=O)c3cc4cc(C(=O)P(=O)(O)O)ccc4[nH]3)CC5)c2Cl)C(C)(C)C)cc1` [Compound I-253], in assay [2] (setting [3]), the 50% degradation concentration (DC50) is under 10 nM.

For `Cn1c(=O)n([C@@H]2CCC(=O)NC2=O)c2ccc(C[C@H]3CC[C@@H](CC(=O)N4CC[C@H]5CC[C@@H](C(=O)N[C@@H](CCC(N)=O)C(=O)NC(c6ccccc6)c6ccccc6)N5C(=O)[C@@H](NC(=O)c5cc6cc(C(=O)P(=O)(O)O)ccc6[nH]5)C4)CC3)cc21` [Compound I-234, (2-(((5S,8S,10aR)-8-(((S)-5-amino-1-(benzhydrylamino)-1,5-dioxopentan-2-yl)carbamoyl)-3-(2-((1S,4R)-4-((1-((R)-2,6-dioxopiperidin-3-yl)-3-methyl-2-oxo-2,3-dihydro-1H-benzo[d]imidazol-5-yl)methyl)cyclohexyl)acetyl)-6-oxodecahydropyrrolo[1,2-a][1,5]diazocin-5-yl)carbamoyl)-1H-indole-5-carbonyl)phosphonic acid], the 50% degradation concentration (DC50) in assay [2] (setting [4]) lay within 10 to 100 nM.
